Assay results as given in ChEMBL document CHEMBL3044556, “Managing weeds with drip-applied herbicides in tomato” (2008).

Key:
Type in all cases: functional
Portulaca oleracea [1] = assay: Pre-emergence herbicidal activity against Portulaca oleracea in tomato field assessed as number of weeds at 2.28 kg/ha applied through drip lines/backpack-spray on week 3 to 4 before transplanting measured 7 weeks after treatment (reference value: 9 plants/m2)
Eleusine indica [2] = assay: Pre-emergence herbicidal activity against Eleusine indica in tomato field assessed as number of extra-large fruits at 2.28 kg/ha applied through drip lines/backpack-spray on week 3 to 4 before transplanting (reference value: 21.3 x 10 '3 ha); settings: pooled result: one value given for 8 cell lines, strains, targets or settings
Echinochloa colona [3] = assay: Pre-emergence herbicidal activity against Echinochloa colona in tomato field assessed as number of weeds at 2.28 kg/ha applied through drip lines/backpack-spray on week 3 to 4 before transplanting measured 7 weeks after treatment (reference value: 9 plants/m2)
Boerhavia erecta [4] = assay: Pre-emergence herbicidal activity against Boerhavia erecta in tomato field assessed as number of weeds at 2.28 kg/ha applied through drip lines/backpack-spray on week 3 to 4 before transplanting measured 12 weeks after treatment (reference value: 9 plants/m2)
Digitaria [5] = assay: Pre-emergence herbicidal activity against Digitaria spp. in tomato field assessed as number of weeds at 2.28 kg/ha applied through drip lines/backpack-spray on week 3 to 4 before transplanting measured 7 weeks after treatment (reference value: 9 plants/m2)
Digitaria [6] = assay: Pre-emergence herbicidal activity against Digitaria spp. in tomato field assessed as number of weeds at 2.28 kg/ha applied through drip lines/backpack-spray on week 3 to 4 before transplanting measured 12 weeks after treatment (reference value: 9 plants/m2)
Portulaca oleracea [7] = assay: Pre-emergence herbicidal activity against Portulaca oleracea in tomato field assessed as number of weeds at 2.28 kg/ha applied through drip lines/backpack-spray on week 3 to 4 before transplanting measured 12 weeks after treatment (reference value: 9 plants/m2)
Cyperus [8] = assay: Pre-emergence herbicidal activity against Cyperus in tomato field assessed as number of weeds at 2.28 kg/ha applied through drip lines/backpack-spray on week 3 to 4 before transplanting measured 7 weeks after treatment (reference value: 3 plants/m2)
Eleusine indica [9] = assay: Pre-emergence herbicidal activity against Eleusine indica in tomato field assessed as number of weeds at 2.28 kg/ha applied through drip lines/backpack-spray on week 3 to 4 before transplanting measured 12 weeks after treatment (reference value: 9 plants/m2)
Trianthema [10] = assay: Pre-emergence herbicidal activity against Trianthema spp. in tomato field assessed as total number of fruits at 2.28 kg/ha applied through drip lines/backpack-spray on week 3 to 4 before transplanting (reference value: 49.5 x 10 '3 ha); settings: pooled result: one value given for 8 cell lines, strains, targets or settings
Poaceae [11] = assay: Pre-emergence herbicidal activity against Poaceae (grass family) in tomato field assessed as number of weeds at 2.28 kg/ha applied through drip lines/backpack-spray on week 3 to 4 before transplanting measured 7 weeks after treatment (reference value: 6 plants/m2)
Poaceae [12] = assay: Pre-emergence herbicidal activity against Poaceae (grass family) in tomato field assessed as number of weeds at 2.28 kg/ha applied through drip lines/backpack-spray on week 3 to 4 before transplanting measured 12 weeks after treatment (reference value: 8 plants/m2)
Boerhavia erecta [13] = assay: Pre-emergence herbicidal activity against Boerhavia erecta in tomato field assessed as number of weeds at 2.28 kg/ha applied through drip lines/backpack-spray on week 3 to 4 before transplanting measured 7 weeks after treatment (reference value: 9 plants/m2)
Trianthema [14] = assay: Pre-emergence herbicidal activity against Trianthema spp. in tomato field assessed as number of weeds at 2.28 kg/ha applied through drip lines/backpack-spray on week 3 to 4 before transplanting measured 7 weeks after treatment (reference value: 9 plants/m2)
Corynandra viscosa [15] = assay: Pre-emergence herbicidal activity against Cleome viscosa in tomato field assessed as number of weeds at 2.28 kg/ha applied through drip lines/backpack-spray on week 3 to 4 before transplanting measured 7 weeks after treatment (reference value: 9 plants/m2)
Echinochloa colona [16] = assay: Pre-emergence herbicidal activity against Echinochloa colona in tomato field assessed as number of weeds at 2.28 kg/ha applied through drip lines/backpack-spray on week 3 to 4 before transplanting measured 12 weeks after treatment (reference value: 9 plants/m2)
Trianthema [17] = assay: Pre-emergence herbicidal activity against Trianthema spp. in tomato field assessed as number of weeds at 2.28 kg/ha applied through drip lines/backpack-spray on week 3 to 4 before transplanting measured 12 weeks after treatment (reference value: 9 plants/m2)
Amaranthus dubius [18] = assay: Pre-emergence herbicidal activity against Amaranthus dubius in tomato field assessed as extra-large fruit weight at 2.28 kg/ha applied through drip lines/backpack-spray on week 3 to 4 before transplanting (reference value: 7.3 t/ha); settings: pooled result: one value given for 8 cell lines, strains, targets or settings
Eleusine indica [19] = assay: Pre-emergence herbicidal activity against Eleusine indica in tomato field assessed as number of weeds at 2.28 kg/ha applied through drip lines/backpack-spray on week 3 to 4 before transplanting measured 7 weeks after treatment (reference value: 9 plants/m2)
Amaranthus dubius [20] = assay: Pre-emergence herbicidal activity against Amaranthus dubius in tomato field assessed as number of weeds at 2.28 kg/ha applied through drip lines/backpack-spray on week 3 to 4 before transplanting measured 12 weeks after treatment (reference value: 9 plants/m2)
Corynandra viscosa [21] = assay: Pre-emergence herbicidal activity against Cleome viscosa in tomato field assessed as number of weeds at 2.28 kg/ha applied through drip lines/backpack-spray on week 3 to 4 before transplanting measured 12 weeks after treatment (reference value: 9 plants/m2)
Cyperus [22] = assay: Pre-emergence herbicidal activity against Cyperus in tomato field assessed as number of weeds at 2.28 kg/ha applied through drip lines/backpack-spray on week 3 to 4 before transplanting measured 12 weeks after treatment (reference value: 5 plants/m2)
Eleusine indica [23] = assay: Pre-emergence herbicidal activity against Eleusine indica in tomato field assessed as total fruit weight at 2.28 kg/ha applied through drip lines/backpack-spray on week 3 to 4 before transplanting (reference value: 13.7 t/ha); settings: pooled result: one value given for 8 cell lines, strains, targets or settings
Amaranthus dubius [24] = assay: Pre-emergence herbicidal activity against Amaranthus dubius in tomato field assessed as number of weeds at 2.28 kg/ha applied through drip lines/backpack-spray on week 3 to 4 before transplanting measured 7 weeks after treatment (reference value: 9 plants/m2)

**Q.** CCN(CC)C(=O)C(C)Oc1cccc2ccccc12 (centres undefined) [NAPROPAMIDE] was tested. Which Activity (Portulaca oleracea [1]) did it give?
**A.** The Activity was 4 /m2.

**Q.** And the fruit count (Eleusine indica [2])?
**A.** The fruit count was 26.3 10^3 fruits/ha.

**Q.** And the Activity (Echinochloa colona [3])?
**A.** The Activity was 4 /m2.

**Q.** What about the Activity (Boerhavia erecta [4]) of the same compound?
**A.** The Activity was 7 /m2.

**Q.** And the Activity (Digitaria [5])?
**A.** Its Activity is 4 /m2.

**Q.** And the Activity (Digitaria [6])?
**A.** The Activity was 7 /m2.

**Q.** And the Activity (Portulaca oleracea [7])?
**A.** The Activity was 7 /m2.

**Q.** And the Activity (Cyperus [8])?
**A.** The Activity was 6 /m2.

**Q.** And the Activity (Eleusine indica [9])?
**A.** The Activity was 7 /m2.

**Q.** And the Activity (Trianthema [10])?
**A.** The Activity was 58.3 10^3 fruits/ha.

**Q.** What about the Activity (Poaceae [11]) of the same compound?
**A.** Its Activity is 1 /m2.

**Q.** And the Activity (Poaceae [12])?
**A.** Its Activity is 6 /m2.

**Q.** What about the Activity (Boerhavia erecta [13]) of the same compound?
**A.** The Activity was 4 /m2.

**Q.** And the Activity (Trianthema [14])?
**A.** The Activity was 4 /m2.

**Q.** And the Activity (Corynandra viscosa [15])?
**A.** Its Activity is 4 /m2.

**Q.** And the Activity (Echinochloa colona [16])?
**A.** Its Activity is 7 /m2.

**Q.** And the Activity (Trianthema [17])?
**A.** Its Activity is 7 /m2.

**Q.** And the Activity (Amaranthus dubius [18])?
**A.** Its Activity is 9.1 tons/ha.

**Q.** And the Activity (Eleusine indica [19])?
**A.** Its Activity is 4 /m2.

**Q.** And the Activity (Amaranthus dubius [20])?
**A.** Its Activity is 7 /m2.

**Q.** And the Activity (Corynandra viscosa [21])?
**A.** Its Activity is 7 /m2.

**Q.** What about the Activity (Cyperus [22]) of the same compound?
**A.** The Activity was 9 /m2.

**Q.** And the Activity (Eleusine indica [23])?
**A.** Its Activity is 16.4 tons/ha.

**Q.** And the Activity (Amaranthus dubius [24])?
**A.** Its Activity is 4 /m2.
